Patent US20030198617A1, “Pharmaceutical tryptophan containing dipeptide compositions and methods of use thereof” (priority 1993, published 2003)
Like-named read-outs stand apart in the source and are kept apart here. Marks after values point to notes of the source that are not given here.

What was measured:
[1] = test system: Staphylococci; assay: Antibiotic-sensitivity of staphylococci from skin lesions (MIC, series cultivation); type: cell-based
From the text: Staphylococci extracted from dermal lesions were initially sensitive to 10 of the 15 antibiotics being assayed (Table 25).

[2] = test system: Mycobacterium tuberculosis; details: in vivo
[3] = test system: methicillin-resistant Staphylococcal aureus; details: 5 test animals
[4] = staphylococci from patients After IM862
[5] = staphylococci from patients Before IM862

Row | Compound | MIC g/ml [1, 4] | MIC g/ml [1, 5] | also measured
1 | Cc1nnc(SCC2=C(C(=O)O)N3C(=O)[C@@H](NC(=O)Cn4cnnn4)[C@H]3SC2)s1 [Cefamezin] | 1.33 ± 0.53^yy g/ml |  | 
2 | c1ccc([C@H]2CN3CCSC3=N2)cc1 [decaris, reference compound] |  |  | disintegration cavities closed, number of patients [2]: 10 patients; improvement, number of patients [2]: 18; no improvement, number of patients [2]: 3 patients; significant improvement, number of patients [2]: only one case
3 | Cc1nnc(SCC2=C(C(=O)O)N3C(=O)[C@@H](NC(=O)Cn4cnnn4)[C@H]3SC2)s1 [Kefzol] | 1.86 ± 0.93^y g/ml |  | 
4 | CC(=O)OCC1=C(C(=O)O)N2C(=O)[C@@H](NC(=O)Cc3cccs3)[C@H]2SC1 [Keflin] | 1. ± 0.69^y g/ml |  | 
5 | Penicillin | 2.52 ± 0.70^yy g/ml | 9.45 ± 0.28^x g/ml | 
6 | [H]/N=C(/N)N[C@H]1[C@H](O)[C@@H](O)[C@H](O[C@@H]2O[C@@H](C)[C@](O)(C=O)[C@H]2O[C@@H]2O[C@@H](CO)[C@H](O)[C@@H](O)[C@@H]2NC)[C@@H](N/C(N)=N\[H])[C@@H]1O [Streptomycin] | 3.39 ± 0.66^yy g/ml | 6.71 ± 0.59^x g/ml | 
7 | Cc1onc(-c2ccccc2)c1C(=O)N[C@@H]1C(=O)N2[C@@H]1SC(C)(C)[C@@H]2C(=O)O [Oxycillin] | 1.56 ± 0.45^yy g/ml | 5.11 ± 0.63^x g/ml | 
8 | Gentamycin | 1.32 ± 0.49^yy g/ml | 5.47 ± 0.92^x g/ml | 
9 | O=C(N[C@H](CO)[C@H](O)c1ccc([N+](=O)[O-])cc1)C(Cl)Cl [Levomicetin] | 4.58 ± 0.67^yy g/ml | 9.17 ± 0.36^x g/ml | 
10 | NC[C@H]1O[C@H](O[C@H]2[C@H](O)[C@@H](O[C@H]3O[C@H](CO)[C@@H](O)[C@H](N)[C@H]3O)[C@H](N)C[C@@H]2N)[C@H](O)[C@@H](O)[C@@H]1O [Kanamycin] | 2.09 ± 0.54^yy g/ml | 6.32 ± 0.58^x g/ml | 
11 | CC1(C)S[C@@H]2[C@H](NC(=O)[C@H](N)c3ccccc3)C(=O)N2[C@H]1C(=O)O [Ampicillin, reference compound] | 2.64 ± 0.60^yy g/ml | 8.10 ± 0.49^x g/ml | Survivors ([3]; 100 mg/kg Ampicillin, pre-treated with normal saline i.p.): no survivors; Percent ip Survivors ([3]; Group 1: IM862 control (0) pretreatment, ampicillin 100 mg/kg 1 hr after inoculation, 72 hours): 0%; Survivors ([3]; Group 1: IM862 control (0) pretreatment, ampicillin 100 mg/kg 1 hr after inoculation, survivors at 72 hours): 0
